Consider eleven compounds from ChEMBL document CHEMBL1201862, “PubChem BioAssay data set” (2004).

Structures are written as SMILES.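 A five-concentration, 48-hour dose response in 96-well plates underlies each endpoint, interpolated linearly between surrounding concentrations. GI50 = concentration required for 50% inhibition of growth.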 Calls of active or inactive are those of the source. No stated cut-off is given here; in the data, active = GI50 up to about 1.1 µM and inactive = higher. A value given as a limit tells only on which side of the number the result lay.

Some test systems named below: EKVX; MCF7; SNB-19; DMS-114; HL-60; MOLT-4; SN12C; RXF 393; SK-OV-3; KM-20L2; A498; CCRF-CEM; DMS-273; OVCAR-3; M14; TK-10.
What all share (assay): NCI-60 cell line screen, 48 h

For the compound `Cc1c2c(cc3c1[nH]c1ccccc13)C=NCC2`, the GI50 was 33 µM (inactive) in the test with EKVX; 2.92 µM (inactive) in the test with MCF7; 18.2 µM (inactive) with SNB-19; 6.9 µM (inactive) in the test with DMS-114; 5.78 µM (inactive) with HL-60; 7.69 µM (inactive) with MOLT-4. Further, the GI50 in the test on SN12C is 19 µM (inactive); with RXF 393, 6.89 µM (inactive); in the test on SK-OV-3, 46.8 µM (inactive); in the test on KM-20L2, 9.51 µM (inactive); in the test on A498, 10.5 µM (inactive); in the test on CCRF-CEM it was 7.48 µM (inactive). The GI50 in the test on DMS-273 is 12.6 µM (inactive); in the test on OVCAR-3 it was 1.26 µM (inactive).
As for `N/C(=C\c1ccc(/C=C(\NC(=O)c2ccccc2)c2nc3c([nH]2)C(=O)c2ccccc2C3=O)cc1)c1nc2c([nH]1)C(=O)c1ccccc1C2=O`, the GI50 in the test with EKVX was 23.3 µM (inactive); with SNB-19, 12.6 µM (inactive); with DMS-114, 7.55 µM (inactive); in the test on M14, 16.2 µM (inactive); in the test on HL-60, 10 µM (inactive); in the test on TK-10 it was 23.1 µM (inactive). In addition, the GI50 was 6.7 µM (inactive) with MOLT-4; 14.3 µM (inactive) in the test with SN12C; 11.8 µM (inactive) with RXF 393; 24.1 µM (inactive) in the test on SK-OV-3; 16.5 µM (inactive) in the test with KM-20L2; 13.6 µM (inactive) in the test on A498. For the same compound, the GI50 is 12.3 µM (inactive) with CCRF-CEM, 18.5 µM (inactive) with DMS-273 and 13.6 µM (inactive) in the test with OVCAR-3.
Regarding `CC(=O)NC1=C[C@@H]([C@H]2COC(C)(C)O2)OC1=O`, the GI50 in the test with EKVX, with MCF7, in the test on SNB-19, in the test on DMS-114, in the test on HL-60 and in the test with MOLT-4 was > 100 µM (inactive) in each case. The GI50 in the test on SN12C, with RXF 393, with SK-OV-3, with KM-20L2, with A498 and in the test on CCRF-CEM was > 100 µM (inactive) throughout. The GI50 in the test with DMS-273 and in the test on OVCAR-3 was > 100 µM (inactive) each time.
On to `CCCCOc1ccc(OCCCCCCCCCC[N+](C)(C)C)cc1`, for which the GI50 with EKVX was 15.5 µM (inactive); in the test on MCF7, 3.44 µM (inactive); in the test on SNB-19, 7.6 µM (inactive); with DMS-114 it was 2.05 µM (inactive); in the test on HL-60, 0.39 µM (active); with MOLT-4, 1.38 µM (inactive). The GI50 with SN12C is 3.62 µM (inactive); in the test on RXF 393, 0.796 µM (active); in the test with SK-OV-3, 2.89 µM (inactive); with KM-20L2, 0.682 µM (active); in the test with A498, 9.93 µM (inactive); in the test with CCRF-CEM, 1.28 µM (inactive). The values for the GI50 with DMS-273 and in the test on OVCAR-3 were 1.51 µM (inactive) and 2.1 µM (inactive), respectively.
Turning to `N=C(N)Nc1ncccc1[N+](=O)[O-]`, the GI50 was 25.7 µM (inactive) in the test with MCF7; > 100 µM (inactive) in the test with SNB-19; 15.8 µM (inactive) in the test with DMS-114; 19.7 µM (inactive) with HL-60; > 100 µM (inactive) in the test on MOLT-4; > 100 µM (inactive) in the test on SN12C. The GI50 in the test with RXF 393 was > 100 µM (inactive); in the test with SK-OV-3 it was > 100 µM (inactive); in the test on KM-20L2, 25.4 µM (inactive); in the test on A498, > 100 µM (inactive); with CCRF-CEM, > 100 µM (inactive); in the test on DMS-273 it was > 100 µM (inactive). Further, in the test on OVCAR-3, the GI50 is 25.1 µM (inactive).
Consider `CSc1nc(NC2OCC(O)C(O)C2O)c(N)c(=O)[nH]1` (stereo unspecified), for which the GI50 in the test on EKVX, in the test on MCF7, in the test with SNB-19, in the test on DMS-114, with HL-60 and with MOLT-4 was > 100 µM (inactive) throughout. Further, the GI50 with SN12C, with RXF 393, with SK-OV-3, in the test with KM-20L2, in the test with A498 and in the test on CCRF-CEM was > 100 µM (inactive) each time. In addition, the GI50 in the test on DMS-273 and in the test with OVCAR-3 was > 100 µM (inactive) each time.
Take `COCCOCC(=O)N(CCn1ccc(NC(c2ccccc2)(c2ccccc2)c2ccccc2)nc1=O)CCn1cnc2nc(N)[nH]c(=O)c21`: the GI50 with EKVX, in the test with DMS-114, with M14, with HL-60, with TK-10 and in the test on MOLT-4 was > 100 µM (inactive) throughout. For the same compound, the GI50 with SN12C, in the test with RXF 393, in the test with KM-20L2, in the test with A498, with CCRF-CEM and in the test with DMS-273 was > 100 µM (inactive) each time. For the same compound, the GI50 in the test with OVCAR-3 is > 100 µM (inactive).
For `COc1ccc(/C=N/N=C(N)N)c(C(=O)O)c1OC`, the GI50 in the test on EKVX, in the test on SNB-19, with DMS-114, in the test with M14, in the test with HL-60 and in the test with TK-10 was > 100 µM (inactive) each time. Further, the GI50 in the test with MOLT-4, in the test on SN12C, in the test on RXF 393, in the test on SK-OV-3, in the test on KM-20L2 and in the test with A498 was > 100 µM (inactive) in each case. Also, the GI50 with CCRF-CEM, with DMS-273 and in the test on OVCAR-3 was > 100 µM (inactive) in each case.
Regarding `Nc1nc(SCCNC(=O)CCc2ccc(O)c(I)c2)nc2c1ncn2C1OC(CO)C(O)C1O` (stereo unspecified), the GI50 with EKVX, with SNB-19, with DMS-114, in the test with M14, with HL-60 and in the test on TK-10 was > 100 µM (inactive) in each case. In addition, the GI50 in the test with MOLT-4, in the test on SN12C, with RXF 393, in the test on SK-OV-3, in the test on KM-20L2 and with A498 was > 100 µM (inactive) throughout. Besides, the GI50 in the test with CCRF-CEM, in the test with DMS-273 and with OVCAR-3 was > 100 µM (inactive) in each case.
With `CC1(C)C(O)C[C@@H](O)[C@@]2(C)C1CC[C@]1(C)C2C[C@@H](O)[C@@H]2C([C@@]3(C)CC[C@@H](C(C)(C)O)O3)CCC21C` (stereo partly specified), the GI50 in the test with EKVX is 24.9 µM (inactive); in the test on SNB-19, 14.2 µM (inactive); in the test on DMS-114, 15.5 µM (inactive); in the test with M14 it was 13.8 µM (inactive); in the test with HL-60, 14.2 µM (inactive); in the test on TK-10 it was 27.2 µM (inactive). The GI50 in the test with MOLT-4 is 22 µM (inactive); with SN12C it was 13.8 µM (inactive); in the test on RXF 393, 13.4 µM (inactive); in the test with SK-OV-3, 15.9 µM (inactive); in the test on KM-20L2 it was 17.5 µM (inactive); in the test on A498, 17.3 µM (inactive). In addition, the GI50 in the test on CCRF-CEM was 17.8 µM (inactive); in the test on DMS-273 it was 14.6 µM (inactive); in the test on OVCAR-3, 15.7 µM (inactive).
With `Nc1[nH]cnc2ncnc1-2` [ADENINE], the GI50 in the test with MCF7 was > 21.3 µM (inactive); in the test with DMS-114, 84.1 µM (inactive); in the test on HL-60, 36.6 µM (inactive); in the test on SN12C, 96.2 µM (inactive); in the test on RXF 393 it was 30.1 µM (inactive); in the test with SK-OV-3, > 250 µM (inactive). Further, the GI50 in the test on KM-20L2 was > 250 µM (inactive); with A498, 7.14 µM (inactive); in the test on DMS-273, 81.1 µM (inactive).
